We go through 18 compounds from US20150284381A1, “AMINO-PYRIDINE-CONTAINING SPLEEN TYROSINE KINASE (SYK) INHIBITORS” (MERCK SHARP & DOHME CORP., priority 2012, published 2015).

In one data set the test system is PGD2. Particulars: dosed intranasally, phase I/II study, allergic rhinitis; cited from earlier work.
For data set [1] the following is noted: phase II clinical trial, allergic rhinitis; cited from earlier work.
The target in data set [2] is T1, recombinant human GST-Syk (Homo sapiens, UniProt P43405).
T1 construct: purchased Carna Biosciences 08-176
The data set is described as follows: Homogeneous Time-Resolved Fluorescence (HTRF) assay for the recombinant human Syk enzyme. The settings on record: recombinant human GST-Syk 5 pM, ATP 25 μM, 45 min at rt, read-out: rhSyk. It is filed as biochemical. Here is the method:
Homogeneous Time-Resolved Fluorescence (HTRF) Assay for the Recombinant Human Syk Enzyme
A recombinant GST-hSyk fusion protein was used to measure potency of compounds to inhibit human Syk activity. The recombinant human GST-Syk (Carna Biosciences #08-176) (5 pM nominal concentration) was incubated with various concentrations of the inhibitor diluted in DMSO (0.1% final concentration) for 10 minutes at rt in 15 mM Tris-HCl (pH 7.5), 0.01% tween 20, 2 mM DTT in 384 well plate format. To initiate the reaction the biotinylated substrate peptide (250 nM final concentration) that contains the phosphorylation site for Syk was added with magnesium (5 mM final concentration) and ATP (25 μM final concentration). Final volume of the reaction was 10 μL. Phosphorylation of the peptide was allowed to proceed for 45′ at rt. To quench the reaction and detect the phosphorylated product, 2 nM of a Europium-anti-phosphotyrosine antibody (Perkin Elmer #AD0161) and 70 nM SA-APC (Perkin-Elmer #CR130-100) were added together in 15 mM Tris pH 7.5, 40 mM EDTA, 0.01% tween 20. Final volume of the quenching solution was 10 μL. The resulting HTRF signal was measured after 30 minutes on a EnVision (Perkin-Elmer) reader using a time-resolved fluorescence protocol. IC50 was determined following 10-dose titration (10 μM to 0.508 nM) and four parameter logistic curve fitting using an assay data analyzer.

For `Oc1cccc(Nc2ncc(F)c(Nc3cccc(O)c3)n2)c1` [Example R112], in the data set on PGD2, the PGD2 result was “statistically significant decrease” and the clinical safety entry is recorded as “safe across a range of indicators”. The efficacy versus placebo entry in data set [1] is listed as “lack of efficacy versus placebo”.

Take `Cc1cc(Nc2cc(C(F)(F)F)ccn2)nc(-c2cnc(C3(O)CCCc4c3ccc(C(=O)O)c4F)s2)c1` (single isomer, unassigned) [Example 1i, (R or S)-1-fluoro-5-hydroxy-5-[5-(4-methyl-6-{[4-(trifluoromethyl)pyridin-2-yl]amino}pyridin-2-yl)-1,3-thiazol-2-yl]-5,6,7,8-tetrahydronaphthalene-2-carboxylic acid]: in data set [2], the IC50 is 2.19 nM.

For the compound `Cc1cc(Nc2cc(C(C)F)ccn2)nc(-c2cnc(C3(O)CCCc4cc(C(=O)O)ccc43)s2)c1` (single isomer, unassigned) [Example 8D, 5-(5-(6-((4-(1-Fluoroethyl)pyridin-2-yl)amino)-4-methylpyridin-2-yl)thiazol-2-yl)-5-hydroxy-5,6,7,8-tetrahydronaphthalene-2-carboxylic acid], in data set [2], the IC50 amounted to 0.1 nM.

`Cc1cc(Nc2cc(C(F)(F)F)ccn2)nc(-c2cnc([C@@]3(O)CCCc4c3ccc(C(=O)O)c4O)s2)c1` (single isomer, unassigned) [Example 7A, 1,5-Dihydroxy-5-[5-(4-methyl-6-{[4-(trifluoromethyl)pyridin-2-yl]amino}pyridin-2-yl)-1,3-thiazol-2-yl]-5,6,7,8-tetrahydronaphthalene-2-carboxylic acid]: in data set [2], the IC50 came out at 4.61 nM.

For the compound `Cc1cc(Nc2cc(C(F)(F)F)ccn2)nc(-c2cnc(C3(O)CCc4cc(C(=O)O)c(F)cc43)s2)c1` (single isomer, unassigned) [Example 1C, (R or S)-6-fluoro-1-hydroxy-1-[5-(4-methyl-6-{[4-(trifluoromethyl)pyridin-2-yl]amino}pyridin-2-yl)-1,3-thiazol-2-yl]-2,3-dihydro-1H-indene-5-carboxylic acid], the IC50 in data set [2] was determined as 0.39 nM.

As for `Cc1cc(Nc2cc(C(C)F)ccn2)nc(-c2cnc(C3(O)CCCc4cc(C(=O)O)ccc43)s2)c1` (single isomer, unassigned) [Example 8B, 5-(5-(6-((4-(1-Fluoroethyl)pyridin-2-yl)amino)-4-methylpyridin-2-yl)thiazol-2-yl)-5-hydroxy-5,6,7,8-tetrahydronaphthalene-2-carboxylic acid], the IC50 in data set [2] was 0.1 nM.

In the case of `CCC(CC)c1ccnc(Nc2cc(C)cc(-c3cnc([C@@]4(O)CCCc5cc(C(=O)O)ccc54)s3)n2)c1` [Example 3C, (5R)-5-[5-(6-{[4-(1-ethylpropyl)pyridin-2-yl]amino}-4-methylpyridin-2-yl)-1,3-thiazol-2-yl]-5-hydroxy-5,6,7,8-tetrahydronaphthalene-2-carboxylic acid], the IC50 in data set [2] stood at 0.5 nM.

Consider `Cc1cc(Nc2cc(C(F)(F)F)ccn2)nc(-c2cnc(C3(O)CCCc4cc(C(=O)O)c(Cl)cc43)s2)c1` (single isomer, unassigned) [Example 1F, (R or S)-3-chloro-5-hydroxy-5-[5-(4-methyl-6-{[4-(trifluoromethyl)pyridin-2-yl]amino}pyridin-2-yl)-1,3-thiazol-2-yl]-5,6,7,8-tetrahydronaphthalene-2-carboxylic acid], for which the IC50 in data set [2] was determined as 0.17 nM.

In the case of `Cc1cc(Nc2cc(-c3cn[nH]c3)ccn2)nc(-c2cnc([C@@]3(O)CCc4cc(C(=O)O)ccc43)s2)c1` [Example 5A, (1R)-1-hydroxy-1-[5-(4-methyl-6-{[4-(1H-pyrazol-4-yl)pyridin-2-yl]amino}pyridin-2-yl)-1,3-thiazol-2-yl]-2,3-dihydro-1H-indene-5-carboxylic acid], the IC50 in data set [2] came to 0.04 nM.

For the compound `Cc1cc(Nc2cc(-c3cn[nH]c3)ccn2)nc(-c2cnc(C3(O)CCCc4cc(C(=O)O)ccc43)s2)c1` (single isomer, unassigned) [Example 4B-1, 5-Hydroxy-5-[5-(4-methyl-6-{[4-(1H-pyrazol-4-yl)pyridin-2-yl]amino}pyridin-2-yl)-1,3-thiazol-2-yl]-5,6,7,8-tetrahydronaphthalene-2-carboxylic acid], the IC50 in data set [2] stood at 1.2 nM.

Turning to `Cc1cc(Nc2cc(C3CC3)ccn2)nc(-c2cnc(C3(O)CCCc4cc(C(=O)O)c(F)cc43)s2)c1` (single isomer, unassigned) [Example 1G, (R or S)-5-(5-{6-[(4-cyclopropylpyridin-2-yl)amino]-4-methylpyridin-2-yl}-1,3-thiazol-2-yl)-3-fluoro-5-hydroxy-5,6,7,8-tetrahydronaphthalene-2-carboxylic acid], in data set [2], the IC50 worked out at 4.3 nM.

With `Cc1cc(Nc2cc(C3CCC(C)CC3)ccn2)nc(-c2cnc([C@@]3(O)CCCc4cc(C(=O)O)ccc43)s2)c1` (stereo partly drawn) [Example 3B, (5R)-5-hydroxy-5-[5-(4-methyl-6-{[4-(4-methylcyclohexyl)pyridin-2-yl]amino}pyridin-2-yl)-1,3-thiazol-2-yl]-5,6,7,8-tetrahydronaphthalene-2-carboxylic acid], the IC50 in data set [2] was 2 nM.

Take `Cc1cc(Nc2cc(C3CCCC(C)C3)ccn2)nc(-c2cnc([C@@]3(O)CCCc4cc(C(=O)O)ccc43)s2)c1` (stereo partly drawn) [Example 3A, (5R)-5-hydroxy-5-[5-(4-methyl-6-{[4-(3-methylcyclohexyl)pyridin-2-yl]amino}pyridin-2-yl)-1,3-thiazol-2-yl]-5,6,7,8-tetrahydronaphthalene-2-carboxylic acid]: in data set [2], the IC50 came out at 1.8 nM.

In the case of `CCCOc1ccnc(Nc2cc(C)cc(-c3cnc([C@@]4(O)CCc5cc(C(=O)O)ccc54)s3)n2)c1` [Example 2H, (1R)-1-hydroxy-1-(5-{4-methyl-6-[(4-propoxypyridin-2-yl)amino]pyridin-2-yl}-1,3-thiazol-2-yl)-2,3-dihydro-1H-indene-5-carboxylic acid], the IC50 in data set [2] amounted to 0.06 nM.

On to `Cc1cc(Nc2cc(-c3c[nH]nn3)ccn2)nc(-c2cnc([C@@]3(O)CCCc4cc(C(=O)N(C)C)ccc43)s2)c1` [Example 6A, (5R)-5-hydroxy-N,N-dimethyl-5-[5-(4-methyl-6-{[4-(1H-1,2,3-triazol-4-yl)pyridin-2-yl]amino}pyridin-2-yl)-1,3-thiazol-2-yl]-5,6,7,8-tetrahydronaphthalene-2-carboxamide], for which the IC50 in data set [2] was 0.73 nM.

Consider `Cc1cc(Nc2cc(C(C)F)ccn2)nc(-c2cnc([C@@]3(O)CCc4cc(C(=O)O)ccc43)s2)c1` (single isomer, unassigned) [Example 2J, (1R)-1-[5-(6-{[4-((R or S)-1-fluoroethyl)pyridin-2-yl]amino}-4-methylpyridin-2-yl)-1,3-thiazol-2-yl]-1-hydroxy-2,3-dihydro-1H-indene-5-carboxylic acid], for which the IC50 in data set [2] was 0.04 nM.

In the case of `Cc1cc(Nc2cc(C(C)F)ccn2)nc(-c2cnc([C@@]3(O)CCc4cc(C(=O)O)ccc43)s2)c1` (single isomer, unassigned) [Example 2K, (1R)-1-[5-(6-{[4-((R or S)-1-fluoroethyl)pyridin-2-yl]amino}-4-methylpyridin-2-yl)-1,3-thiazol-2-yl]-1-hydroxy-2,3-dihydro-1H-indene-5-carboxylic acid], in data set [2], the IC50 turned out to be 0.05 nM.

On to `Cc1cc(Nc2cc(C(F)(F)F)ccn2)nc(-c2cnc(C3(O)CCc4cc(C(=O)O)c(F)cc43)s2)c1` (single isomer, unassigned) [Example 1D, (R or S)-6-fluoro-1-hydroxy-1-[5-(4-methyl-6-{[4-(trifluoromethyl)pyridin-2-yl]amino}pyridin-2-yl)-1,3-thiazol-2-yl]-2,3-dihydro-1H-indene-5-carboxylic acid], for which the IC50 in data set [2] came out at 0.67 nM.
